Assay results published in US3962282A, “Juvenile hormone mimics” (priority 1974, dated 1976).
Values joined by “and” are separate entries in the source; they are usually repeats but may differ in a detail not shown here. Identical values can stand only once.

Experiments:
Tenebrio molitor pupae = experiment: topical application to Tenebrio molitor pupae, maturation inhibition; assay type: in vivo; details: rating scale 0-4
Method in brief: (§1)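 Compounds applied topically, 1 μL acetone solution at 10%, 1% or 0.5%, to ten specimens per insect per concentration, alongside acetone and untreated controls; scored after about 8–10 days. Juvenile/adult characteristics rated 0–3 (Tenebrio 0–4), ≥2 meaning unable to reproduce; unreported specimens died during metamorphosis.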

[1] = test system: Melon aphids (Aphis gossypi); experiment: melon aphids on dipped squash plants; assay type: in vivo; details: 200 ppm, six days
Experimental: Young squash plants were dipped for 30 seconds in aqueous solutions containing 200, 100, and 50 ppm. of 2.6-dimethyl-9-(3,4-methylenedioxyphenyl)-2,6-nonadiene. Three plants were treated at each concentration and three plants were used as controls. After the plants had dried, ten adult aphids (Aphis gossypi) were placed on each plant and allowed to feed. The plants were maintained under laboratory conditions. Twenty-four hours after they were placed on the plants, all adults were removed, leaving young nymphs. Six days after treatment, the total number of aphids on each plant was determined.

milkweed bug = experiment: topical application to milkweed bug, fourth nymphal stage, maturation inhibition; assay type: in vivo; details: rating scale 0-3
Method in brief: as §1

[2] = test system: cockroach nymphs (Blattella germanica); experiment: German cockroach nymphs in treated glass jars; assay type: in vivo; details: for reproduction: four months
Experimental: Test jars were prepared by adding 2 ml. of an acetone solution containing 10 mg., 20 mg., or 100 mg. of 2,6-dimethyl-9-(3,4-methylenedioxyphenyl)-2,6-nonadiene to 1 gallon glass jars and allowing the acetone to evaporate. The jars were equipped with watering bottles, food, and paper towels. There were two jars for each rate of test compound and two jars for nontreated controls. To each jar were added 20 40-day-old cockroach nymphs (Blattella germanica). […] Thus, the nonadiene at 100 mg. had prevented reproduction for 4 months.

[3] = test system: Mexican bean beetle larvae; experiment: fumigant and residual activity in jars on Mexican bean beetle larvae; assay type: in vivo
Experimental: Fumigant and residual activity of 2,6-dimethyl-9-(3,4-methylenedioxyphenyl)-2,6-nonadiene was determined in the following manner. One milliliter of a 1 percent, a 0.1 percent or a 0.01 percent solution of the test compound was placed in the bottom of a one pint jar. A control was prepared using just acetone. The acetone was allowed to evaporate and 10 Mexican bean beetle larvae were placed on a screen 5 inches from the bottom. The jar was closed for one week at which time the controls emerge as adults and the treated ones are rated as described above. The larvae are replaced weekly.

Southern corn rootworm = Southern corn rootworm larvae in treated petri dishes, adult emergence; assay type: in vivo, Diabrotica undecimpunctata; details: 21 days
Experimental: Petri dishes containing 150 g. of sand were autoclaved for one hour. Corn seed which had been soaked overnight was rinsed first with a solution of 10 percent alcohol, 20 percent chlorox, and 70 percent water for 15 minutes and then with clear water. Three to four seeds were placed in each dish. The dishes were then moistened with 15 ml. of a 100 ppm. solution of a fungicide. After 24 hours, ten Southern corn rootworm eggs (Diabrotica undecimpunctata) were placed in each dish. The dishes were maintained in an incubator in the dark for 14 days. New petri dishes were prepared as described except that the eggs were not added and 2,6-diemthyl-9-(3,4-methylenedioxyphenyl)-2,6-nonadiene was added at a rate of 100 ppm. or 10 ppm. Ten dishes at each treatment rate and ten controls were used. Three larvae from the incubated dishes were placed in each of the treated dishes and each control dish. […] There were a total of 15 adults in the ten dishes treated at 10 ppm. and a total of 19 adults in the ten control dishes.

aphid nymphs = experiment: application to aphid nymphs in acetone; assay type: in vivo, Aphis gossypi; details: 3 days
Experimental: In another test, female aphids were placed on young squash plants and allowed to produce young for 24 hours. After 24 hours, all adult aphids were removed from the plants and the young were maintained on the plants for an additional 48-hour period. This gave an aphid nymph population having an age of 48 to 72 hours. To each nymph was applied […]. of a 10 percent, 1 percent, or 0.5 percent solution of 2.6- dimethyl-9-(3,4-methylenedioxyphenyl)-2,6-nonadiene or 7,8-epoxy-4-ethyl-8-methyl-1-(3,4-methylenedioxyphenyl)-3-decene in acetone and the aphid nymphs were transferred to new squash plants and observed for possible effects. Ten nymphs were treated with each concentration of each compound and 10 were treated with acetone alone while 10 were not treated to serve as controls. […] There was only one dead nymph treated with acetone alone and one dead nymph in the nontreated controls.

German cockroach nymphs = experiment: topical application to 50-day-old German cockroach nymphs; assay type: in vivo, Blattella germanica
Description: In another test, the nonadiene was applied topically to 50-day-old German cockroach nymphs. The compound was applied in acetone as a […], or 0.5 percent solution. Acetone controls and nontreated controls were also run. The roaches were then maintained in the laboratory until the controls reproduced. […] The 1 percent and 0.5 percent treatments did reproduce.

SMILES: CC(C)=CCCC(C)=CCCc1ccc2c(c1)OCO2 [2,6-dimethyl-9-(3,4-methylenedioxyphenyl)-2,6-nonadiene]
- number of specimens in rating 4 (Tenebrio molitor pupae; 0.5%): 9 specimens
- number of specimens in rating 4 (Tenebrio molitor pupae; 1%): 10 specimens
- number of specimens in rating 4 (Tenebrio molitor pupae; 10%): 10 specimens
- number of aphids per plant, Total [1]: 15 and 13 and 22
- number of specimens in rating 3 (milkweed bug; 0.5%): 10 specimens
- number of specimens in rating 3 (milkweed bug; 1%): 10 specimens
- number of specimens in rating 3 (milkweed bug; 10%): 5 specimens
- state of adults and nymphs ([2]; 10 mg, about 2 1/2 months): normal adults and newly hatched nymphs
- state of adults and nymphs ([2]; 20 mg, about 2 1/2 months): normal adults and newly hatched nymphs
- duration of prevented reproduction ([2]; 100 mg): 4 months
- newly hatched nymphs ([2]; 100 mg, about 2 1/2 months): did not contain newly hatched nymphs
- wings of adults ([2]; 100 mg, about 2 1/2 months): all adults in the jars had deformed wings
- reproduction ([2]; 100 mg): no reproduction
- reproduction ([2]; lower rate jars (10 and 20 mg)): large numbers of newly hatched nymphs
- number in rating 0 ([3]; Fifteenth Week, 0.01%): 10
- number in rating 0 ([3]; Fifteenth Week, 0.1%): 10
- number in rating 3 ([3]; Fifteenth Week, 1%): 10
- number in rating 0 ([3]; Fifth Week, 0.01%): 10
- number in rating 3 ([3]; Fifth Week, 0.1%): 10
- number in rating 3 ([3]; Fifth Week, 1%): 10
- number in rating 0 ([3]; First Week, 0.01% (0.1 mg.)): 5
- number in rating 2 ([3]; First Week, 0.01% (0.1 mg.)): 1
- number in rating 3 ([3]; First Week, 0.01% (0.1 mg.)): 4
- number in rating 3 ([3]; First Week, 0.1% (1 mg.)): 10
- number in rating 2 ([3]; First Week, 1% (10 mg.)): 1
- number in rating 3 ([3]; First Week, 1% (10 mg.)): 9
- number in rating 0 ([3]; Second Week, 0.01%): 4
- number in rating 2 ([3]; Second Week, 0.01%): 2
- number in rating 3 ([3]; Second Week, 0.01%): 4
- number in rating 3 ([3]; Second Week, 0.1%): 10
- number in rating 0 ([3]; Second Week, 1%): 1
- number in rating 3 ([3]; Second Week, 1%): 10
- number in rating 0 ([3]; Tenth Week, 0.01%): 10
- number in rating 0 ([3]; Tenth Week, 0.1%): 5
- number in rating 1 ([3]; Tenth Week, 0.1%): 2
- number in rating 2 ([3]; Tenth Week, 0.1%): 1
- number in rating 3 ([3]; Tenth Week, 0.1%): 2
- number in rating 3 ([3]; Tenth Week, 1%): 10
- number in rating 3 ([3]; Twenty-second Week, 1%): 10
- total adults in the ten dishes (Southern corn rootworm; 10 ppm, 19 adults in ten control dishes): 15 adults
- adults emerged (Southern corn rootworm; 100 ppm): no adults had emerged
- dead nymphs (aphid nymphs; 0.5 percent): nine of the ten
- dead nymphs (aphid nymphs; 1 percent): all of the nymphs
- dead nymphs (aphid nymphs; 10 percent): all of the nymphs
- reproduction (German cockroach nymphs; 0.5 percent): did reproduce
- reproduction (German cockroach nymphs; 1 percent): did reproduce
- reproduction (German cockroach nymphs; 10 percent solution): did not reproduce
- wing formation (German cockroach nymphs; 10 percent solution): normal wing formation
